Legend:
[1] = tested on: LNCaP prostate xenograft tumors; experiment: LNCaP prostate xenograft tumor model, tumor growth inhibition; type: in vivo, mice
Method: (§1) Procedure: The experimental details of the studies, including tumor model, mouse strain, cell number implanted, vehicle used, days of treatment, treatment details, and average tumor size at start of dosing are outlined in Table 1. All study mice were purchased from Beijing Anikeeper Biotech and Matrigel was utilized as a basement membrane for all xenograft models. All xenografts were engrafted subcutaneously in the right flank region. The vehicles and Compound 1 (3 mg/kg) were administered twice weekly (BIW) intraperitoneally and enzalutamide (30 mg/kg) was administered orally once daily (QD), when applicable. Tumor volumes and body weights were measured over the course of study, and doses were adjusted by body weight to achieve the proper dose in terms of mg/kg.

[2] = tested on: VCaP prostate xenograft tumors; experiment: VCaP prostate xenograft tumor model (Example 1), tumor growth inhibition; type: in vivo, mice
Method: as §1

[3] = tested on: PC3 prostate xenograft tumors; experiment: PC3 prostate xenograft tumor model, tumor growth inhibition; type: in vivo, mice
Method: as §1

[4] = tested on: NCI-H660 prostate xenograft tumors; experiment: NCI-H660 prostate xenograft tumor model, tumor growth inhibition; type: in vivo, mice; conditions: NCI-H660 CDX model
Method: as §1

[5] = tested on: C42B prostate xenograft tumors; experiment: C42B prostate xenograft tumor model, tumor growth inhibition; type: in vivo, mice
Method: as §1

[6] = tested on: 22Rv1 prostate xenograft tumors; experiment: 22Rv1 prostate xenograft tumor model, tumor growth inhibition; type: in vivo, mice
Method: as §1

[7] = tested on: DU145 human prostate cancer tumor cells; experiment: DU145 subcutaneous CDX model efficacy study (tumor growth inhibition, tolerability); type: in vivo, mice; conditions: for tumor growth inhibition (TGI): DU145, P<0.001 vs. vehicle control; for Tumor Growth % on Day 49 / Tumor Size on Day 49 / T/C / TGI: DU145 subcutaneous model, 43 days; for T/C / TGI: Day 49
Method: Procedure: The experimental details of the studies, including tumor model, mouse strain, cell number implanted, vehicle used, days of treatment, treatment details, and average tumor size at start of dosing are outlined in Table 3. All study mice were obtained and the studies were conducted at Pharmaron. Each mouse was inoculated subcutaneously on the right flank with the single cell suspension of DU145 human prostate cancer tumor cells (5×10^6) in 0.1 mL with Matrigel (1:1) in MEM with 10% FBS for tumor development.
Based on tumor volume, mice were randomly assigned to respective groups using a computer-generated randomization procedure. The study groups and the number of animals per group are shown in Table 4A (efficacy study) and Table 4B (PKPD study).
Treatment for the efficacy cohort was initiated when the mean tumor volume reached 145 mm^3 on Day 7 post tumor cell inoculation. Animals for the efficacy study were randomized into 3 groups: 1) Vehicle Control BIW IP (administered twice per week, intraperitoneally (IP); 2) Compound 1 at 3 mg/kg BIW IP; and 3) Compound 1 at 15 mg/kg BIW IP.
In the case of an animal reaching a tumor size exceeding 2000 mm^3, the entire group was terminated. Plasma and tumor samples were collected at 4 hours and 72 hours post last dose for all groups. For the PKPD Cohort, the tumors were cut into 2 pieces: one for Western Blotting (WB) with BRD9 analysis, and one for RNAseq analysis. For the Efficacy Cohort, the tumors were analyzed for BRD9 levels by Western Blotting (WB).

[8] = tested on: VCAP human prostate cancer tumor cells; experiment: VCaP CRPC CDX model in castrated mice (Example 6), tumor growth inhibition and tolerability; type: in vivo
Method: Procedure: The experimental details of the studies, including tumor model, mouse strain, cell number implanted, vehicle used, days of treatment, treatment details, and average tumor size at start of dosing are outlined in Table 7. All study mice were obtained and the studies were conducted at Pharmaron. Each mouse was inoculated subcutaneously on the right flank with the single cell suspension of VCAP human prostate cancer tumor cells (1×10^7) in 0.1 mL with Matrigel (1:1) in DMEM medium with 10% FBS for tumor development. The mice were castrated by removing the testes via a scrotal approach when the tumor volume reached 270 mm^3. After castration, the tumor volume decreased. Treatment started when the mean tumor volume grew back 265 mm^3. Based on tumor volume, mice were randomly assigned to respective groups using a computer-generated randomization procedure and treated according to the study design in Table 8.

[9] = VCAP CRPC model, castrated mice, Compound 1 at 10 mg/kg IP BIW, 25 days
[10] = VCAP CRPC model, castrated mice, Compound 1 at 10 mg/kg IP BIW, 25 days, Day 57

## COc1cc(-c2cn(C)c(=O)c3cnc(N4CCC4)cc23)cc(OC)c1CN1CCC(CN2CCC3(CC2)CN(c2ccc4c(c2)C(=O)N(C2CCC(=O)NC2=O)C4)C3)CC1 (stereo not shown) [Compound 1, 3-(6-(7-((1-(4-(6-(azetidin-1-yl)-2-methyl-1-oxo-1,2-dihydro-2,7-naphthyridin-4-yl)-2,6-dimethoxybenzyl)piperidin-4-yl)methyl)-2,7-diazaspiro[3.5]nonan-2-yl)-1-oxoisoindolin-2-yl) piperidine-2,6-dione]
[1]; LNCaP CDX model, AR+, 3 mg/kg BIW IP
  TGI with Compound 1 3 mg/kg: 6.0%
[1]; LNCaP xenograft, Compound 1 3 mg/kg BIW IP, enzalutamide 30 mg/kg QD oral
  tumor growth inhibition (TGI), in words: did not result in tumor growth inhibition
[2]; VCaP CDX model, AR V7+, 3 mg/kg BIW IP
  TGI with Compound 1 3 mg/kg: 57.8%
[2]; VCaP xenograft, Compound 1 3 mg/kg BIW IP, enzalutamide 30 mg/kg QD oral
  tumor growth inhibition, in words: tumor growth inhibition that was greater than the inhibition provided by enzalutamide treatment
[3]; PC3 CDX model, AR−, 3 mg/kg BIW IP
  TGI with Compound 1 3 mg/kg: 61.7%
[3]; PC-3 CDX model, Compound 1 3 mg/kg BIW IP
  TGI: 61.7%
[4]; AR−, 3 mg/kg BIW IP
  TGI with Compound 1 3 mg/kg: 56.9%
[4]; Compound 1 3 mg/kg BIW IP
  TGI: 56.9%
[5]; C42B CDX model, AR+, 3 mg/kg BIW IP
  TGI with Compound 1 3 mg/kg: 28.7%
[5]; C42B xenograft, Compound 1 3 mg/kg BIW IP, enzalutamide 30 mg/kg QD oral
  tumor growth inhibition, in words: modest tumor growth inhibition which was less than the TGI provided by enzalutamide treatment
[6]; 22RV1 CDX model, AR V7+, 3 mg/kg BIW IP
  TGI with Compound 1 3 mg/kg: 73.2%
[6]; 22RV1 xenograft, Compound 1 3 mg/kg BIW IP, enzalutamide 30 mg/kg QD oral
  tumor growth inhibition, in words: modest tumor growth inhibition which was less than the TGI provided by enzalutamide treatment
[6]; 22Rv1 CDX model, Compound 1 3 mg/kg BIW IP, enzalutamide 30 mg/kg QD oral
  TGI: 73.2%
[7]; 3 mg/kg BIW IP
  tumor growth inhibition (TGI): 42.2%
  Tumor Growth % on Day 49: 710 ± 19%
  Tumor Size on Day 49: 1029 ± 30 mm^3
  T/C: 57.8%
  TGI: 42.2%
[7]; 15 mg/kg BIW IP
  tumor growth inhibition (TGI): 55.3%
  Tumor Growth % on Day 49: 549 ± 26%
  Tumor Size on Day 49: 793 ± 31 mm^3
  T/C: 44.7%
  TGI: 55.3%
[7]; DU145 study, 1 mg/kg, 3 mg/kg and 15 mg/kg IP during the treatment period
  safety profile: tolerability: tolerated Compound 1 well
[7]; DU145 study, any of the animals treated
  clinical abnormalities: No obvious clinical abnormalities
[8]; Compound 1 10 mg/kg, enzalutamide 30 mg/kg, deaths suspected due to castration surgery
  animals found dead at the late stage of the treatment period: One
[8]; [9]
  Tumor Growth % on Day 57: 267 ± 20%
  Tumor Size on Day 57: 697 ± 44 mm3
[8]; [10]
  T/C: 86.2%
  TGI: 13.8%
[8]; VCaP CRPC model, castrated mice, Compound 1 10 mg/kg, enzalutamide 30 mg/kg, day 57 after tumor inoculation
  TGI: 13.8%

From patent US20250255857A1, “METHODS OF TREATING ANDROGEN RECEPTOR-INDEPENDENT PROSTATE CANCER” (FOGHORN THERAPEUTICS INC., priority 2022, published 2025)
